For one compound, binding, G4DC50 and ΔTm results are on record in PMC4773817 (2016).

For assay [1], the system named is HP1 (DNA, hairpin) GGTACGTGGCTGAGGCCAGTGGGTAGGGCGGGTTGGCCTCAGCCACGTACC
Kind of assay: luminescence enhancement. The following applies: 1.1-fold emission enhancement.

For assay [2], the system named is CCR5-DEL (DNA, single strand) CTCATTTTCCATACATTAAAGATAGTCAT
In words: luminescence enhancement. Conditions: 1 μM compound, 5 μM DNA, 10 mM Tris, pH 7.4.

In assay [3] the test system is PS2.M (DNA, G4) GTGGGTAGGGCGGGTTGG
Kind of assay: fluorescent intercalator displacement (G4-FID). Conditions: Tris-HCl buffer; thiazole orange displaced.

The test system of assay [4] is PS2.M 5'-side loop n=1 (DNA, G4) GTGGGAGGGCGGGTTGG
Kind of assay: luminescence enhancement. Conditions: 4.2-fold emission enhancement.

For assay [5], the system named is FPS2.MT (labelled PS2.M) (DNA, G4) GTGGGTAGGGCGGGTTGG
Kind of assay: FRET melting. The following applies: not printed (procedure from ref. 50); 3 μM compound, 0.2 μM DNA.

The test system of assay [6] is ds26 (DNA, duplex) CAATCGGATCGAATTCGATCCGATTG
Kind of assay: FRET melting competition. The following applies: ds26 (2 μM, 10-fold excess) as competitor of 0.2 μM labelled PS2.M; 3 μM compound; no significant change.

The subject of assay [7] is HP5 (DNA, hairpin) ACGTGGCTGAGGCCAGTGGGTAGGGCGGGTTGGCCTCAGCCACGT
In words: luminescence enhancement. The following applies: HP5 formed in assay without Nt.BbvCI.

Assay [8] has as its system F10T (DNA, hairpin, hexaethylene glycol (HEG) linker between nucleotides 8 and 9) TATAGCTATATAGCTATAT
In words: FRET melting. The following applies: 3 μM compound, 0.2 μM DNA; no significant variation.

Assay [9] deals with PS2.M 5'-side loop n=17 (DNA, G4) GTGGGTTTTTTTTATTTTTTTTGGGCGGGTTGG
Kind of assay: luminescence enhancement. Conditions: 9.2-fold emission enhancement.

For `[Ir+3].[Ir+3].[c-]1ccccc1-c1ccc2ccccc2n1.[c-]1ccccc1-c1ccc2ccccc2n1.[c-]1ccccc1-c1ccc2ccccc2n1.[c-]1ccccc1-c1ccc2ccccc2n1.c1ccc(N(CCCCCN(c2ccccn2)c2ccccn2)c2ccccn2)nc1`, the binding result is “weak” in assay [1]; “weak” in assay [2]; “yes” in assay [4]; “weak” in assay [6]; “weak” in [7]; “no” in assay [8]. In addition, in assay [9], the binding entry is recorded as “yes”. For the same compound, in [3], the G4DC50 is 7.0 µM. In addition, the ΔTm in assay [5] is ~ 12 °C.
